The text below walks through data of publication PMC5522996, “Big conductance calcium‐activated potassium channel openers control spasticity without sedation” (British Journal of Pharmacology, 2017).

Molecules are shown by their SMILES. pEC50: −log10 of the molar value.

The target in one series is T1, NE transporter (Homo sapiens, UniProt P23975).
T1 construct: purchased Cerep; Chantest; DiscoveRx; Multispan; MDS Pharma Services
The experiment in a line: Receptor binding profile of VSN16R. The conditions noted are these: 10µM VSN16R.

For another series, the target named is T2, GPR23 (Homo sapiens, UniProt Q99677).
T2 construct: purchased Cerep; Chantest; DiscoveRx; Multispan; MDS Pharma Services
Nature of the series: Receptor binding profile of VSN16R. Conditions: 10µM VSN16R.

A further series has as its target T3, M3 (Homo sapiens, UniProt P20309).
T3 construct: purchased Cerep; Chantest; DiscoveRx; Multispan; MDS Pharma Services
Nature of the series: Receptor binding profile of VSN16R. The conditions noted are these: 10µM VSN16R.

A further series concerns GlyR. Nature of the series: Receptor binding profile of VSN16R. More on the design: species or system human. Conditions: 10µM VSN16R.
In another series the target is T4, MC4 (Homo sapiens, UniProt P32245).
T4 construct: purchased Cerep; Chantest; DiscoveRx; Multispan; MDS Pharma Services
The experiment in a line: Receptor binding profile of VSN16R. Conditions: 10µM VSN16R.

In the next series the test system is rat mesenteric artery. More on the design: method as in Hoi et al., 2007. The conditions noted are these: ref Hoi et al., 2007; read-out: EC50, vasorelaxation of rat mesenteric arteries; cited from earlier work.
Another series has as its target BKCa channel (Homo sapiens, UniProt Q12791). The experiment in a line: Single‐channel inside‐out patch clamp, HCN‐2 neural cells. The conditions noted are these: inside‐out patches. In kind it is cell-based. How it is done: The human EA.hy926 endothelial cells (ATCC, Manassas, USA) were grown in DMEM containing 10% FCS and 1% HAT (5 mM hypoxanthine, 20 μM aminopterin and 0.8 mM thymidine) and were maintained in an incubator at 37°C in 5% CO2 atmosphere (Bondarenko et al., 2013). Human HNC‐2 neuronal cells were obtained from ATCC. For experiments, cells were plated on glass coverslips. Single‐channel recordings were obtained from excised inside‐out membrane patches in symmetrical solutions using the patch‐clamp technique. All patch‐clamp experiments were performed at room temperature with the use of a water hydraulic micromanipulator (WR‐6, Narishige, Japan). […] The pipettes were filled with 140 mM KCl, 10 mM HEPES, 1 mM MgCl2, 5 mM EGTA and […] CaCl2 buffered to pH 7.2 by adding KOH. Cells were super‐perfused with a bath solution containing 140 mM NaCl, 5 mM KCl, 1.2 mM MgCl2, 10 mM HEPES, 10 mM glucose and 2.4 mM CaCl2. […] Single‐channel activity was expressed as NPo, where N represents the number of functional ion channels in the membrane patch and Po represents the open channel probability determined from idealized traces (Bondarenko et al., 2011). […] Data were analysed by ANOVA, and statistical significance was evaluated using Scheffés post hoc test of the Prism 5 software for Windows (GraphPad Software).

A further series relates to GABAA. The experiment in a line: Receptor binding profile of VSN16R. More on the design: species or system human. Conditions: 10µM VSN16R.
A short description of series [1]: Plasma, brain and spinal cord levels in ABH mice with spastic EAE. In kind it is in vivo, mouse. How it is done: The stability of compounds when subjected to hepatic and plasma degradation was assessed in vitro by Inpharmatica, Cambridge, UK. Compounds (1 μM) were incubated with either pooled mouse liver microsomes (0.1 mg protein mL^−1) or pooled mouse plasma at 37°C for 0, 5, 10, 20 and 40 min before termination with acetonitrile containing warfarin as an analytical internal standard. Samples were centrifuged, and the resultant supernatant analysed for parent compound. The mass responses at baseline were taken as the 100% reference values against which the disappearance of the compound was measured. The natural log of the % remaining values was used to generate linear plots of disappearance of the compounds. Half‐life values were calculated from the slope of these plots. Hepatocyte metabolism was assessed by Cyprotex, Macclesfield, and 10 μM VSN16R was incubated with primary mouse, rat, monkey (Macaque) and human hepatocytes for 1 h, and the presence of metabolites was assessed using liquid […] mass spectroscopy. The stability of VSN16R was assessed in vivo by Inpharmatica, Cyprotex and Charles Rivers, Cambridge. Blood (plasma) samples were obtained prior to and 5 min to 24 h after drug administration of 2–5 mg·kg^−1 i.v. or 5 mg·kg^−1 p.o. VSN16R into outbred mice and rats (n = 3 per time point). In addition, plasma, brain and spinal cord samples were obtained from ABH with spastic EAE. Immediately after blood collection, the brain and spinal cord were removed and then stored at −20°C prior to assay. Tissue samples were weighed, homogenized and centrifuged, and the lysates generated. Brain lysates and plasma were assayed by LC–MS methods by Inpharmatica/Charles Rivers, Cambridge, UK. This was also performed using a Waters Xevo TQ or API4000, AB Sciex mass spectrometer using spiked samples as standards. PK Solutions Software (Summit Research Services, Montrose, CO, USA), AB Sciex Analyst software combined with Thermo Fisher Scientific Watson LIMS processing and reporting software or WinNonLin pharmacokinetic or PK solutions 2.0 software (Summit Research Services, Montrose CO, USA) were used to produce PK parameters. Data are expressed as mean ± SEM. The detection limit of VSN16R was 2 ng·mL^−1 in plasma and brain and 14 ng·mL^−1 in spinal cords. The detection limit of VSN22R was 2 ng·mL^−1 in plasma and 0.1 ng·mL^−1 for VSN44R in plasma. Pharmacokinetics in toxicological samples in rats (n = 6 per group), dogs (n = 6 per group) and humans (n = 6 per group) were performed by Charles Rivers (Edinburgh, UK).

The target of another series is T5, GPR35 (Homo sapiens, UniProt Q9HC97).
T5 construct: purchased Cerep; Chantest; DiscoveRx; Multispan; MDS Pharma Services
The experiment in a line: Receptor binding profile of VSN16R. The conditions noted are these: 10µM VSN16R.

The next series deals with rats. Nature of the series: Reproductive toxicology in rats. In kind it is in vivo, rat. Conditions: p.o.
The target in the next series is T6, EDG8 (Homo sapiens, UniProt Q9H228).
T6 construct: purchased Cerep; Chantest; DiscoveRx; Multispan; MDS Pharma Services
The experiment in a line: Receptor binding profile of VSN16R. Conditions: 10µM VSN16R.

A further series addresses T7, 5-HT7 (Homo sapiens, UniProt P34969).
T7 construct: purchased Cerep; Chantest; DiscoveRx; Multispan; MDS Pharma Services
The experiment in a line: Receptor binding profile of VSN16R. The conditions noted are these: 10µM VSN16R.

Series [2] has as its target T8, hCB2 Receptor (HEK293T.CNR2) (Homo sapiens, UniProt P34972).
T8 construct: expressed in transfected cells; host or cells: HEK293T
The experiment in a line: cAMP assay, HEK293T.CNR2. Type of series: cell-based. Conditions: max. tested 10μM.

The next series deals with T9, mouse Gpr55 (Mus musculus, UniProt Q3UJF0).
T9 construct: expressed in transfected cells; host or cells: DBT cells
Nature of the series: Nuclear CREB expression, DBT cells transfected with mouse Gpr55. In kind it is cell-based. Conditions: 10 μM.

Another series addresses T10, A2A (Homo sapiens, UniProt P29274).
T10 construct: purchased Cerep; Chantest; DiscoveRx; Multispan; MDS Pharma Services
Nature of the series: Receptor binding profile of VSN16R. The conditions noted are these: 10µM VSN16R.

T5 sequence (Q9HC97 whole entry): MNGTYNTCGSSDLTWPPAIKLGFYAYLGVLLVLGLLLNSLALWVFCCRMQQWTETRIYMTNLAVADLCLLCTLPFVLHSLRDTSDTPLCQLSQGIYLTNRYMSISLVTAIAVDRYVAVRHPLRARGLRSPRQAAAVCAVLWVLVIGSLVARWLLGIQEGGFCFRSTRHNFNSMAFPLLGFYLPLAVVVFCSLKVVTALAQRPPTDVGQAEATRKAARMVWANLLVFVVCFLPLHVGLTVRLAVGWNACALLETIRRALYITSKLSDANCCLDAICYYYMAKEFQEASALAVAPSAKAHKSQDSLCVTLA
T3 sequence (P20309 whole entry): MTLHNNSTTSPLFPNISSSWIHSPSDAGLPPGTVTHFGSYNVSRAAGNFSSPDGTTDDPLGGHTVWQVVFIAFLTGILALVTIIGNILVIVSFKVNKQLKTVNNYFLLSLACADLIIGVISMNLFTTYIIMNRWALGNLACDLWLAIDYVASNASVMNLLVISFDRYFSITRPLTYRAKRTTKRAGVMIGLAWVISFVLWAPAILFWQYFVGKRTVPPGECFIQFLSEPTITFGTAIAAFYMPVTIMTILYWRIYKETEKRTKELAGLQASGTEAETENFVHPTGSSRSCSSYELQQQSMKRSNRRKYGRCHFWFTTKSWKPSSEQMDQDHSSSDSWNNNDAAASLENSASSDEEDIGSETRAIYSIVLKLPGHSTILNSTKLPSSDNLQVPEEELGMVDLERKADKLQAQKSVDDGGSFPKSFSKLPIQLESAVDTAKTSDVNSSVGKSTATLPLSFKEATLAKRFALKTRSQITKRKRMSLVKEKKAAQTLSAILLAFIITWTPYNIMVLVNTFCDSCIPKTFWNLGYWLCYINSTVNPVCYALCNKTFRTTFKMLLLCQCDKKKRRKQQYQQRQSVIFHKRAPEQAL
T9 sequence (Q3UJF0 whole entry): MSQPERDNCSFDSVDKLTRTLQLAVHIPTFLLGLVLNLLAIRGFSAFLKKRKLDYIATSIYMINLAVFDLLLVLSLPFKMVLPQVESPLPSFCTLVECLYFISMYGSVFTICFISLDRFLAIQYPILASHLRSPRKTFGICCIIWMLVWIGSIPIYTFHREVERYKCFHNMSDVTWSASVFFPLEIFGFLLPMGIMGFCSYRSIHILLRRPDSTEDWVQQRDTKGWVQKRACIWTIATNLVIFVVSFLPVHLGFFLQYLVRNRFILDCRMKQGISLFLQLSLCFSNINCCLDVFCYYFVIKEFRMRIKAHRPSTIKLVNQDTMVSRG
Sequence of BKCa channel (Q12791 whole entry): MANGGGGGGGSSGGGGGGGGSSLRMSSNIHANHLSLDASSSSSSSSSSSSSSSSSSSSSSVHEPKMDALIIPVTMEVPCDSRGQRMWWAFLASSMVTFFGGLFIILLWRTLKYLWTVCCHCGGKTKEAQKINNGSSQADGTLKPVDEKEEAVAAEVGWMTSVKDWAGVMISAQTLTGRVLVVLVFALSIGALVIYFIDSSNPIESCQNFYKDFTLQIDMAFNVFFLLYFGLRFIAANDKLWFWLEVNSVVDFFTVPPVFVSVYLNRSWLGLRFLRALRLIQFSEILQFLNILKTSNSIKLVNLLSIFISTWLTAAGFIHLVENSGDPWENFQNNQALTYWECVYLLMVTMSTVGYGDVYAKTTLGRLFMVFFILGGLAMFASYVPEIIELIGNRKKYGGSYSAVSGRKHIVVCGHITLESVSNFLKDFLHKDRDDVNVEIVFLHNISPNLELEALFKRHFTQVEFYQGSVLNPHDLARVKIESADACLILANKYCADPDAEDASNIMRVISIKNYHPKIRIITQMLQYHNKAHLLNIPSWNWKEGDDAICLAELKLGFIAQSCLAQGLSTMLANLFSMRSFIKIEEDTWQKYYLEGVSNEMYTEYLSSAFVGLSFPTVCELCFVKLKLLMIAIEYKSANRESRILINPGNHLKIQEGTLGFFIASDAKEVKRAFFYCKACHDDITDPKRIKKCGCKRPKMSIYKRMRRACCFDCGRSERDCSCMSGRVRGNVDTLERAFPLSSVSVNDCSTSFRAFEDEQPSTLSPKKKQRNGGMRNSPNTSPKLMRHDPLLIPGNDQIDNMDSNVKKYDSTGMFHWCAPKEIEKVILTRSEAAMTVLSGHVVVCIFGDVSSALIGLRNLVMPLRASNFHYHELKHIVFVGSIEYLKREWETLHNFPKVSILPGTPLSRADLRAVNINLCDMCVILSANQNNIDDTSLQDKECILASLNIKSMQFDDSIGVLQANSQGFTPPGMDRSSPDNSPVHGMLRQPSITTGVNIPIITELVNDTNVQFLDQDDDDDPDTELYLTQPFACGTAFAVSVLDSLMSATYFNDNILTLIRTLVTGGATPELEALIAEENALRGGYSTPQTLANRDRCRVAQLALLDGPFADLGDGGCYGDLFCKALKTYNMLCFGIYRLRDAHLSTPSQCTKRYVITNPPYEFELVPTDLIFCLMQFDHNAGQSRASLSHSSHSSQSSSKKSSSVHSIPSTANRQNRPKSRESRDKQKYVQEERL
T4 sequence (P32245 whole entry): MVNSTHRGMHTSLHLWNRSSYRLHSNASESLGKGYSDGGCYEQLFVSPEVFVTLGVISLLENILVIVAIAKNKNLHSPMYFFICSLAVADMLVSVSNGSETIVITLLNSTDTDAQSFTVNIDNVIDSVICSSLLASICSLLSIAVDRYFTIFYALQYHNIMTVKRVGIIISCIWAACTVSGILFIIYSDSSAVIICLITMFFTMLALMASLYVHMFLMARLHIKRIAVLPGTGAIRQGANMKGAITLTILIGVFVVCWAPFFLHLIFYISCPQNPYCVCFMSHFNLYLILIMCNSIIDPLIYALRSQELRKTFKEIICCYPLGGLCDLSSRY
T6 sequence (Q9H228 whole entry): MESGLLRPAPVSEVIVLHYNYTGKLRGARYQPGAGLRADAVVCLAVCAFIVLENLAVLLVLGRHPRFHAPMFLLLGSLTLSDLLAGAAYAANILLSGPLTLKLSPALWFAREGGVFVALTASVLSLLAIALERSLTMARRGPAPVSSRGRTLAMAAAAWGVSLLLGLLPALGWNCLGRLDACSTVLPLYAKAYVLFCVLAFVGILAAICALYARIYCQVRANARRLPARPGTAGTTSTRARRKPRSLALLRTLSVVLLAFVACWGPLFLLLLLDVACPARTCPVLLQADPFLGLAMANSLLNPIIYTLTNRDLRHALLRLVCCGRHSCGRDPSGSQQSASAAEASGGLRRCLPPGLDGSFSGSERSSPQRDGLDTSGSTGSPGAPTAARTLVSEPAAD
T10 sequence (P29274 whole entry): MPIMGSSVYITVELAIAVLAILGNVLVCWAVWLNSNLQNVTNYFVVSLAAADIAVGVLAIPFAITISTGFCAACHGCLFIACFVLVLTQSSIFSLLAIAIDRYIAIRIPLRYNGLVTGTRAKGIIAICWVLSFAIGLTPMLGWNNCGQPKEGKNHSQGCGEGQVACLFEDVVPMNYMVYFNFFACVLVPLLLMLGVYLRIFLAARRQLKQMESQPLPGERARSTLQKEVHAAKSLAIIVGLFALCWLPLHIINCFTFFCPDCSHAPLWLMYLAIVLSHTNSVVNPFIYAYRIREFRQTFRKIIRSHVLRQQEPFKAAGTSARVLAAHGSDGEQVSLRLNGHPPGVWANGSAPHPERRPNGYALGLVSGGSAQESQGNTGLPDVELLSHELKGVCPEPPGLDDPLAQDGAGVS
T2 sequence (Q99677 whole entry): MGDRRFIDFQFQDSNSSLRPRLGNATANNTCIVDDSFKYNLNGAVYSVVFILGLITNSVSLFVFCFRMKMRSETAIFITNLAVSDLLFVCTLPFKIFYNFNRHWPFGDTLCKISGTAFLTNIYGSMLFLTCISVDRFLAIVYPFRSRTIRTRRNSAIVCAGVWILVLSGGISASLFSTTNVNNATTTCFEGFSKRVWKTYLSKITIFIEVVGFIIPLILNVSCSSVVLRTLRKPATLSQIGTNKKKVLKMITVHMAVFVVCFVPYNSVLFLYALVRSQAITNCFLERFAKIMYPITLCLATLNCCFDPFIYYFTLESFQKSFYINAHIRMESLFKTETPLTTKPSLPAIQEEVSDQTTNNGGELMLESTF
T7 sequence (P34969 whole entry): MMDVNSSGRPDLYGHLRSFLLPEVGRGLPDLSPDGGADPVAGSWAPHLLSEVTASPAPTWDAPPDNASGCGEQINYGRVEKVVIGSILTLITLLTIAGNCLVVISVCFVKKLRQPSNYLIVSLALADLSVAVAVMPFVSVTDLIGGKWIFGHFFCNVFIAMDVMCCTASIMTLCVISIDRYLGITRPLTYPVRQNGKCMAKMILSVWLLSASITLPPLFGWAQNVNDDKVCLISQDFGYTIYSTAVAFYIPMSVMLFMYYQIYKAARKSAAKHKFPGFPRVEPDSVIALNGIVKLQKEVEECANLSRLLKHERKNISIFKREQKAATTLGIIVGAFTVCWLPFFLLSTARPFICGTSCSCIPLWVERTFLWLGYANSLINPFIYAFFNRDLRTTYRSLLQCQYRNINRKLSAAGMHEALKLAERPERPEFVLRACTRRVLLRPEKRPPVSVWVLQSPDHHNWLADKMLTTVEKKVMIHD
T8 sequence (P34972 whole entry): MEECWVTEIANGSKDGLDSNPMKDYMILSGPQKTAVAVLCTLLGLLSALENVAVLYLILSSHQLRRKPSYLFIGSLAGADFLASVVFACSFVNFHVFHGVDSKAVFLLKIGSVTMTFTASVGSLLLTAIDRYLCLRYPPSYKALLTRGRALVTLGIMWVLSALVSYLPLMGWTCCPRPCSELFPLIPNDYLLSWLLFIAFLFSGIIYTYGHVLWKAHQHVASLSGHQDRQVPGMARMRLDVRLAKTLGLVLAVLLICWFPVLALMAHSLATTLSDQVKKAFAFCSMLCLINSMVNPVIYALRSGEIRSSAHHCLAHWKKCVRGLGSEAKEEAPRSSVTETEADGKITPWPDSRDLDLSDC

Take `C[C@H](CO)NC(=O)c1cccc(/C=C\CCCC(=O)N(C)C)c1` [VSN16R]: the Activity result on NE transporter, on GPR23, on M3, in the series with GlyR, on MC4 and in the series with GABAA was “Negligible Activity” each time. Further, the Activity entry on GPR35, on EDG8, at 5-HT7 and on A2A was “Negligible Activity” in each case. The pEC50 in the series with rat mesenteric artery is 6.96. Besides, the “Single BKCa channel activity” value at BKCa channel is recorded as “stimulated single BKCa channel activity”. In addition, the “Plasma level of the named species” value in [1] (after 5 mg·kg^−1 p.o. VSN16R, ABH mice with spastic EAE) was 73.0 ± 6.1 ng/mL. For the same molecule, the “Mice with drug detected in brains” value in series [1] (chronic EAE animals) and in [1] (normal animals) was 4/4 in each case. Also, the “Mice with drug detected in spinal cords” value in [1] (chronic EAE animals) is reported as 2/4; in series [1] (normal animals), 0/4. Further, the “Reproductive toxicology safe level” value with rats turned out to be 1000 mg·kg^−1. For the same molecule, the “Activity of VSN16R (Max. Tested)” value in series [2] was “No Activity”. For the same molecule, the “Activity on DBT cells transfected with mouse Gpr55” value at mouse Gpr55 was “Lack of activity”.
